According to patent publication US20240182945A1, “PRODUCTS FOR REGULATION OF EUKARYOTIC AND MICROBIAL CELLS GROWTH” (priority 2021, published 2024):
Values after ≈ are worked out from the molar mass of the structure shown. Where two headings read alike, the source gives them in different places.

Key:
Gram negative rods = assay: Supplements added to culture media to control bacterial diversity (microscopy, 18 h); assay type: cell-based; parameters: key: “+++” marks the diversity of certain bacterial type in control; “+++++” indicates an increased diversity of bacterial type; settings: 18 h of cultivation
Text: (§1) We next studied, could we regulate bacterial diversity grown from the bio samples with different compounds including transcriptase inhibitors, protease inhibitors, recombinase/integrase inhibitors, nucleases.

[1] = test system: Gram positive non-sporeforming bacteria; assay: as above; assay type: cell-based; parameters: key: “+++” marks the diversity of certain bacterial type in control; “+++++” indicates an increased diversity of bacterial type; settings: 18 h of cultivation
Text: as §1

[2] = test system: Gram positive sporeforming bacteria; assay: as above; assay type: cell-based; parameters: key: “+++” marks the diversity of certain bacterial type in control; “+++++” indicates an increased diversity of bacterial type; settings: 18 h of cultivation
Text: as §1

Primary Pathogens = assay: Sensitivity of primary pathogens to antibiotics, standard serial microbroth-dilution method (Example 23); assay type: cell-based; settings: for MIC: Pseudomonas aeruginosa
Text: We used sputum from patients with different pulmonary infections. Pure bacterial culture of each microorganisms was obtained by routine microbiological methods, bacterial identification was done by MALDI-TOF analysis, microbial diversity of biosample was done by metagenomic analysis (16S RNA sequencing).
Primary pathogen was selected as a leading pathogen in each infection case, based on consultation with an independent doctors who have received a description of the clinical picture, microbiology and microbiology analyses. Sensitivity of PP to antibiotics was evaluated using a standard serial microbroth-dilution method.

PP in sputum biosamples = assay: Presence of PP growth in wells with different tobramycin concentrations; assay type: cell-based; parameters: key: “+”—presence of bacterial growth, antibiotic is ineffective; “−”—absence of bacterial growth, antibiotic is effective
Method: Next, biosamples were plated to the wells of 48 well plate filled with Columbia +Pept Meat Agar supplemented with tobramycin taken at different concentrations (we have taken MIC as equal to Cmax) and presence of PP growth was evaluated in each well in 24 h of growth.

PP [3] = assay: Neutropenic mouse pneumonia infected with biosamples, tobramycin treatment, decrease of PP count by 3log10 over 48 hours; assay type: in vivo, C57BL/6 mice; settings: efficacy = decrease of PP count by 3log10 over 48 hours
Method: Next, using the same biosamples we infected mice modulating pneumonia. For that, adult C57BL/6 mice were rendered neutropenic by injecting cyclophosphamide subcutaneously 4 days before infection (150 mg/kg of body weight), 1 day before infection (100 mg/kg), and 1 day after infection (100 mg/kg). Mice were anesthetized with 2% isoflurane and orally instilled with biosample disluted in PBS. Briefly, nares were blocked, and mice aspirated 50 μL of the biosample into the lungs while being held vertically for 60 s. MIX was taken as a Cmax.
30 animals were used (n=10 per group) and were treated with different concentrations of tobramycin according to the results obtained by proposed method from 3 different biosamples.
(§2) Efficacy was evaluated by the decrease of PP count by 3log10 over 48 hours.

PP [4] = assay: Animals treated with amoxicillin regimens, decrease of PP count by 3log10 over 48 hours; assay type: in vivo; settings: efficacy = decrease of PP count by 3log10 over 48 hours
Method: 25 animals were used (n=5 per group) and were treated with different concentrations of Amoxicillin according to the results obtained by proposed method from 3 different biosamples.
as §2

S. aureus = assay: Sensitivity of PP to antibiotics, standard serial microbroth-dilution method (Example 24); assay type: cell-based; settings: for MIC: Staphylococcus aureus
[5] = test system: PP+MM within the biosample; assay: Presence of bacterial growth in the wells supplemented with amoxicillin; assay type: cell-based; parameters: key: “+” - presence of bacterial growth, antibiotic is ineffective; “−”- absence of bacterial growth, antibiotic is effective
Method: Next, biosamples were plated to the wells of 48 well plate filled with Columbia+Pept Meat Agar supplemented with Amoxicillin. We modulated a QID, BID and TID administration of amoxicillin on PP+MM within the biosample. The following assumptions were made.
Next we evaluated Presence of bacterial growth in the wells supplemented with amoxicillin.

## C[C@H](Cn1cnc2c(N)ncnc21)OCP(=O)(O)O [Group 8]
Gram negative rods; compound at 100 ug/mL
  diversity of Gram negative rods: +++
[1]; compound at 100 ug/mL
  diversity of Gram positive non-sporeforming bacteria: +++++
[2]; compound at 100 ug/mL
  diversity of Gram positive sporeforming bacteria: +++

## NC[C@H]1O[C@H](O[C@H]2[C@H](O)[C@@H](O[C@H]3O[C@H](CO)[C@@H](O)[C@H](N)[C@H]3O)[C@H](N)C[C@@H]2N)[C@H](N)C[C@@H]1O [Tobramycin]
Primary Pathogens; Biosample 1, P. aeruginosa
  Sensitivity (CLSI interpretation): S
  MIC: 2 µg/mL (≈ 4.28 µM)
Primary Pathogens; Biosample 2, P. aeruginosa
  Sensitivity (CLSI interpretation): I
  MIC: 8 µg/mL (≈ 17.1 µM)
Primary Pathogens; Biosample 3, P. aeruginosa
  Sensitivity (CLSI interpretation): I
  MIC: 8 µg/mL (≈ 17.1 µM)
PP in sputum biosamples; Biosample 1 (PP P. aeruginosa), 1/10 Cmax, 24 h
  Presence of bacterial growth in the wells: −
PP in sputum biosamples; Biosample 1 (PP P. aeruginosa), 1/100 Cmax, 24 h
  Presence of bacterial growth in the wells: +
PP in sputum biosamples; Biosample 1 (PP P. aeruginosa), Cmax × 2, 24 h
  Presence of bacterial growth in the wells: −
PP in sputum biosamples; Biosample 1 (PP P. aeruginosa), Cmax × 10, 24 h
  Presence of bacterial growth in the wells: −
PP in sputum biosamples; Biosample 1 (PP P. aeruginosa), Cmax, 24 h
  Presence of bacterial growth in the wells: −
PP in sputum biosamples; Biosample 1 (PP P. aeruginosa), ¼ Cmax, 24 h
  Presence of bacterial growth in the wells: −
PP in sputum biosamples; Biosample 1 (PP P. aeruginosa), ½ Cmax, 24 h
  Presence of bacterial growth in the wells: −
PP in sputum biosamples; Biosample 2 (PP P. aeruginosa), 1/10 Cmax, 24 h
  Presence of bacterial growth in the wells: +
PP in sputum biosamples; Biosample 2 (PP P. aeruginosa), 1/100 Cmax, 24 h
  Presence of bacterial growth in the wells: +
PP in sputum biosamples; Biosample 2 (PP P. aeruginosa), Cmax × 2, 24 h
  Presence of bacterial growth in the wells: −
PP in sputum biosamples; Biosample 2 (PP P. aeruginosa), Cmax × 10, 24 h
  Presence of bacterial growth in the wells: −
PP in sputum biosamples; Biosample 2 (PP P. aeruginosa), Cmax, 24 h
  Presence of bacterial growth in the wells: −
PP in sputum biosamples; Biosample 2 (PP P. aeruginosa), ¼ Cmax, 24 h
  Presence of bacterial growth in the wells: +
PP in sputum biosamples; Biosample 2 (PP P. aeruginosa), ½ Cmax, 24 h
  Presence of bacterial growth in the wells: +
PP in sputum biosamples; Biosample 3 (PP P. aeruginosa), 1/10 Cmax, 24 h
  Presence of bacterial growth in the wells: +
PP in sputum biosamples; Biosample 3 (PP P. aeruginosa), 1/100 Cmax, 24 h
  Presence of bacterial growth in the wells: +
PP in sputum biosamples; Biosample 3 (PP P. aeruginosa), Cmax × 2, 24 h
  Presence of bacterial growth in the wells: −
PP in sputum biosamples; Biosample 3 (PP P. aeruginosa), Cmax × 10, 24 h
  Presence of bacterial growth in the wells: −
PP in sputum biosamples; Biosample 3 (PP P. aeruginosa), Cmax, 24 h
  Presence of bacterial growth in the wells: −
PP in sputum biosamples; Biosample 3 (PP P. aeruginosa), ¼ Cmax, 24 h
  Presence of bacterial growth in the wells: −
PP in sputum biosamples; Biosample 3 (PP P. aeruginosa), ½ Cmax, 24 h
  Presence of bacterial growth in the wells: −
PP [3]; Group 1a, biosample #1, Cmax 1/10 (lowest EFFECTIVE)
  Number of animals to whom therapy was effective/number of animals per group: 5/5
PP [3]; Group 1b, biosample #1, Cmax 1/100 (highest INEFFECTIVE)
  Number of animals to whom therapy was effective/number of animals per group: 0/5
PP [3]; Group 2a, biosample #2, Cmax 1/1 (lowest EFFECTIVE)
  Number of animals to whom therapy was effective/number of animals per group: 5/5
PP [3]; Group 2b, biosample #2, Cmax 1/10 (highest INEFFECTIVE)
  Number of animals to whom therapy was effective/number of animals per group: 0/5
PP [3]; Group 3a, biosample #3, Cmax 1/4 (lowest EFFECTIVE)
  Number of animals to whom therapy was effective/number of animals per group: 5/5
PP [3]; Group 3b, biosample #3, Cmax 1/10 (highest INEFFECTIVE)
  Number of animals to whom therapy was effective/number of animals per group: 0/5
PP [4]; Group 1a, biosample #1, QID (lowest EFFECTIVE)
  Number of animals to whom therapy was effective/number of animals per group: 5/5
PP [4]; Group 2a, biosample #2, TID (lowest EFFECTIVE)
  Number of animals to whom therapy was effective/number of animals per group: 5/5
PP [4]; Group 2b, biosample #2, BID (highest INEFFECTIVE)
  Number of animals to whom therapy was effective/number of animals per group: 0/5
PP [4]; Group 3a, biosample #3, BID (lowest EFFECTIVE)
  Number of animals to whom therapy was effective/number of animals per group: 5/5
PP [4]; Group 3b, biosample #3, QID (highest INEFFECTIVE)
  Number of animals to whom therapy was effective/number of animals per group: 0/5

## CC1(C)S[C@@H]2[C@H](NC(=O)[C@H](N)c3ccc(O)cc3)C(=O)N2[C@H]1C(=O)O [Amoxicillin]
S. aureus; Biosample 1, S. aureus
  Sensitivity (CLSI interpretation): S
  MIC: 0.25 µg/mL (≈ 0.684 µM)
S. aureus; Biosample 2, S. aureus
  Sensitivity (CLSI interpretation): I
S. aureus; Biosample 3, S. aureus
  Sensitivity (CLSI interpretation): S
S. aureus; Biosample 2, S. aureus, read-out: MIC
  MIC: 4 µg/mL (≈ 10.9 µM)
S. aureus; Biosample 3, S. aureus, read-out: MIC
  MIC: 2 µg/mL (≈ 5.47 µM)
[5]; Biosample 1 (PP S. aureus), C0-6 h
  Presence of bacterial growth in the wells: −
[5]; Biosample 1 (PP S. aureus), C0-12 h
  Presence of bacterial growth in the wells: −
[5]; Biosample 1 (PP S. aureus), C0-24 h
  Presence of bacterial growth in the wells: −
[5]; Biosample 2 (PP S. aureus), C0-6 h
  Presence of bacterial growth in the wells: −
[5]; Biosample 2 (PP S. aureus), C0-12 h
  Presence of bacterial growth in the wells: +
[5]; Biosample 2 (PP S. aureus), C0-24 h
  Presence of bacterial growth in the wells: +
[5]; Biosample 3 (PP S. aureus), C0-6 h
  Presence of bacterial growth in the wells: −
[5]; Biosample 3 (PP S. aureus), C0-12 h
  Presence of bacterial growth in the wells: −
[5]; Biosample 3 (PP S. aureus), C0-24 h
  Presence of bacterial growth in the wells: +

## Nc1nc([O-])c2ncn(COCCO)c2n1.[Na+] [Group 11]
Gram negative rods; compound at 0.5 ug/mL
  diversity of Gram negative rods: +++
[1]; compound at 0.5 ug/mL
  diversity of Gram positive non-sporeforming bacteria: +++++
[2]; compound at 0.5 ug/mL
  diversity of Gram positive sporeforming bacteria: +++

## Nc1nc([O-])c2ncn(COCCO)c2n1.[Na+] [Group 12]
Gram negative rods; compound at 100 ug/mL
  diversity of Gram negative rods: +++
[1]; compound at 100 ug/mL
  diversity of Gram positive non-sporeforming bacteria: +++++
[2]; compound at 100 ug/mL
  diversity of Gram positive sporeforming bacteria: +++

## C[C@H](Cn1cnc2c(N)ncnc21)OCP(=O)(O)O [Group 7]
Gram negative rods; compound at 0.5 ug/mL
  diversity of Gram negative rods: +++
[1]; compound at 0.5 ug/mL
  diversity of Gram positive non-sporeforming bacteria: +++++
[2]; compound at 0.5 ug/mL
  diversity of Gram positive sporeforming bacteria: +++
